Laboratory results reported in PMC10303271, “Synthesis and Receptor Binding Studies of α5 GABAAR Selective Novel Imidazodiazepines Targeted for Psychiatric and Cognitive Disorders” (Molecules, 2023).

Assays:
[1] = target: kappa opioid receptors (KOR) (Homo sapiens, UniProt P41145); assay: PDSP radioligand binding at KOR; details: for inhibition at 10 µM: 1.5 h, at 10,000 nM, N = 5, [3H]-U69593 0.83 nM, read-out: Primary Binding %KOR
Excerpt: (§1) Opioid receptors are a family of inhibitory G-coupled protein receptors where opioids act as the ligand. The kappa opioid receptors (KOR), µ and δ opioid receptors (MOR and DOR), and nociception opioid receptor (NOP) fall under the family of opioids receptors. It has been reported that oxadiazole imidazodiazepines can mediate analgesic and anti-inflammatory properties mediated also by the κ opioid receptor (KOR). The binding at KOR is usually silent. The affinities of the test compounds for KOR, DOR, and MOR were determined using radioligand binding assays at a screening concentration of 10,000 nM in collaboration with the National Institute of Mental Health’s Psychoactive Drug Screening Program (PDSP), as mentioned before. Concentration-dependent experiments were conducted to determine Ki values for the compounds that exceeded more than 50% radioligand displacement in primary binding assays.
(§2) The NIMH PDSP assay protocol book [https://kidbdev.med.unc.edu/databases/PDSP%20Protocols%20II%202013-03-28.pdf accessed on 23 April 2023]. describes the protocols for primary and secondary radio-ligand binding assays. These assays were carried out in a final volume of 125 µL per well in the appropriate binding buffer.
(§3) The binding of a ligand to a receptor, ion channel, or transporter was determined in the […] of 10 µM of the appropriate reference compound. […] Plates were incubated in the dark for 90 min at rt, and the reactions were stopped by vacuum filtration onto 0.3% polyethyleneimine (PEI) soaked 96-well filter mats using a 96-well Filtermateharvester. This was followed by three washes with cold PBS buffer. Radioactivity was then counted on a Microbeta counter. Nonlinear regression was used to analyze the data with N = 6 replicates.

MOR = target: T1, MOR (Homo sapiens, UniProt P35372); assay: PDSP radioligand binding at MOR; details: 1.5 h; at 10,000 nM; N = 5; [3H]-DAMGO 1.20 nM; read-out: Primary Binding %MOR
T1 construct: purchased NIMH Psychoactive Drug Screening Program (PDSP)
T1 sequence (P35372 whole entry): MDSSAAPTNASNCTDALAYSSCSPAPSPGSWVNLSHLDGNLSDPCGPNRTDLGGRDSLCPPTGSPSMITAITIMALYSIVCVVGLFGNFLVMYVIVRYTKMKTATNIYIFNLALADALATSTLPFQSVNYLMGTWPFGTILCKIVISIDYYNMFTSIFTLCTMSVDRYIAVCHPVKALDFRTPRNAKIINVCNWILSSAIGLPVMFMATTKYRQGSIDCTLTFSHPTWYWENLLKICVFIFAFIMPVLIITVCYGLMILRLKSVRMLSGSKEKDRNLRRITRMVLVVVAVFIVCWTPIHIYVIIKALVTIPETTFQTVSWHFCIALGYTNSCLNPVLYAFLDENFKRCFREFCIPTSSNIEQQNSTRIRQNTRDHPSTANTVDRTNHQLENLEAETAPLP
Excerpt: as §1, §2, §3

DOR = target: T2, DOR (Homo sapiens, UniProt P41143); assay: PDSP radioligand binding at DOR; details: at 10,000 nM; N = 5; [3H]-DADLE 2.69 nM; read-out: Primary Binding %DOR
T2 construct: purchased NIMH Psychoactive Drug Screening Program (PDSP)
T2 sequence (P41143 whole entry): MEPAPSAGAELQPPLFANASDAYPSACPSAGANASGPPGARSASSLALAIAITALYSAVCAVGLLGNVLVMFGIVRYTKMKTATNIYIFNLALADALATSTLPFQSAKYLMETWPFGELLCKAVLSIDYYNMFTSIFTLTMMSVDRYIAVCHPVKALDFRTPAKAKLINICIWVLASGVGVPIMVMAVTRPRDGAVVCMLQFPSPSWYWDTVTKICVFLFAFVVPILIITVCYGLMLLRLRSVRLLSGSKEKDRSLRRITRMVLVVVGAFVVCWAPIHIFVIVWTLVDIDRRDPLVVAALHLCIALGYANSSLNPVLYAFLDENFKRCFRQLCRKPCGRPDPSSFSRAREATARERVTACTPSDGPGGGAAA
Excerpt: as §1, §2, §3

[2] = design: method as in PMID 35266641, PMID 36712569, doi:10.1016/j.euroneuro.2019.09.268; details: autism, antipsychotic activity, cognitive disorders; cited from earlier work

kappa opioid receptors (KOR), sequence (P41145 whole entry): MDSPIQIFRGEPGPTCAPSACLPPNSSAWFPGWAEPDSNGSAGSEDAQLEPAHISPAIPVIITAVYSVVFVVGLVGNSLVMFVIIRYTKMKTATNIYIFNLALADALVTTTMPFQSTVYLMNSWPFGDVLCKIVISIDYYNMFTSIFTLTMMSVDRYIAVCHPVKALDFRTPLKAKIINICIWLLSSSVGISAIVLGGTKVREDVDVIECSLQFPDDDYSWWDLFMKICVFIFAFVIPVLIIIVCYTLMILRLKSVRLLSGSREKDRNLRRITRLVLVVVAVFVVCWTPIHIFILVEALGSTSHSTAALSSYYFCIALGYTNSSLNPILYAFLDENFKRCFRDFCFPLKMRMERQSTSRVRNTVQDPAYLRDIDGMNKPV

| SMILES | Ki [1] | inhibition at 10 µM [1] | inhibition at 10 µM (MOR) | inhibition at 10 µM (DOR) | activity in psychiatric disorders [2] |
| --- | --- | --- | --- | --- | --- |
| C[C@H]1N=C(c2ccccc2F)c2cc(Cl)ccc2-n2cnc(C(=O)N(C)C)c21 [Compound 32, (R)-8-Chloro-6-(2′-fluorophenyl)-N,N,4-trimethyl-4H-benzo[f]imidazo[1,5-a][1,4]diazepine-3-carboxamide] | 731 ± 238 nM | 81.4 ± 7.52% | 11.2 ± 5.47% | 14.4 ± 7.98% | – |
| C#Cc1ccc2c(c1)C(c1ccccc1F)=N[C@H](C)c1c(C(=O)NC)ncn1-2 [MP-III-022] | – | – | – | – | active in low doses |
| CCc1noc(-c2ncn3c2[C@@H](C)N=C(c2ccccc2F)c2cc(C4CC4)ccc2-3)n1 [Compound 47] | 248 ± 22.6 nM | 91.3 ± 3.06% | 25.1 ± 12.8% | 67.3 ± 7.84% | – |
